Read-outs that look alike come from different tables or passages of the source.
Assays:
SW480 = assay: cells; type: cell-based
SNU-C1 = assay: cells; type: cell-based
[1] = test system: HCT116 cells treated with a GSK3β inhibitor; assay: cells; type: cell-based
HT-29 = assay: cells; type: cell-based
HCT116 = assay: cells; type: cell-based
Colo320 = assay: cells; type: cell-based
DLD-1 = assay: cells; type: cell-based
RKO = assay: cells; type: cell-based
[2] = test system: ECFC/ADSC co-culture cell nuclei number
[3] = test system: endothelial tube formation in co-cultures of ECFCs and ADSCs treated with VEGF; assay: cells; type: cell-based, human
HeLa cells = assay: cells; type: cell-based; settings: for Hela CellCycMod PI 2N IC50/EC50: assay number 14; for Hela CellCycMod PI 4N IC50/EC50: assay number 16; for Hela CellCycMod PI MI IC50/EC50: assay number 17; for Hela CellCycMod PI Cell Number IC50/EC50: assay number 18
[4] = assay number 26, GSK3b inhibitor pretreated

SMILES: CN1CCC(=C2c3ccccc3C=Cc3ccccc32)CC1 [NCGC00015252-12]
- Basal_Viability ATP SW480 IC50/EC50 (SW480; assay number 24, basal): 5.9167 µM
- Basal_Viability ATP SNU-C1 IC50/EC50 (SNU-C1; assay number 30, basal): 10.7827 µM
- GSK3b inh pretreated_Viability ATP HCT116 IC50/EC50 [1, 4]: > 20 µM
- Basal_Viability ATP HT-29 IC50/EC50 (HT-29; assay number 28, basal): > 20 µM
- Basal_Viability ATP HCT116 IC50/EC50 (HCT116; assay number 25, basal): > 20 µM
- Basal_Viability ATP Colo 320 IC50/EC50 (Colo320; assay number 27, basal): > 20 µM
- Basal_Viability ATP DLD-1 IC50/EC50 (DLD-1; assay number 23, basal): > 20 µM
- Basal_Viability ATP RKO IC50/EC50 (RKO; assay number 29, basal): 11.2853 µM

SMILES: CN(C)[C@@H](CCOc1cccc2ccccc12)c1ccccc1 [NCGC00253658-01]
- Basal_Viability ATP SW480 IC50/EC50 (SW480; assay number 24): > 20 µM
- Basal_Viability ATP SNU-C1 IC50/EC50 (SNU-C1; assay number 30): 12.8035 µM
- GSK3b inh pretreated_Viability ATP HCT116 IC50/EC50 [1, 4]: 9.8615 µM
- Basal_Viability ATP HT-29 IC50/EC50 (HT-29; assay number 28): > 20 µM
- Basal_Viability ATP HCT116 IC50/EC50 (HCT116; assay number 25, basal): > 20 µM
- Basal_Viability ATP Colo 320 IC50/EC50 (Colo320; assay number 27): > 20 µM
- Basal_Viability ATP DLD-1 IC50/EC50 (DLD-1; assay number 23): > 20 µM
- Basal_Viability ATP RKO IC50/EC50 (RKO; assay number 29): 8.1098 µM

SMILES: Nc1ncn([C@@H]2O[C@H](CO)[C@@H](O)[C@H]2O)c(=O)n1 [NCGC00090851-10]
- Basal_Viability ATP SW480 IC50/EC50 (SW480; assay number 24): > 6.6667 µM
- Basal_Viability ATP SNU-C1 IC50/EC50 (SNU-C1; assay number 30): 1.8027 µM
- Basal_Viability ATP HT-29 IC50/EC50 (HT-29; assay number 28): 12.5329 µM
- Basal_Viability ATP HCT116 IC50/EC50 (HCT116; assay number 25, basal): 3.0364 µM
- Basal_Viability ATP Colo 320 IC50/EC50 (Colo320; assay number 27): 12.3406 µM
- Basal_Viability ATP DLD-1 IC50/EC50 (DLD-1; assay number 23): 2.5502 µM
- VEGF_ADSC\ECFC Angio Hoechst NucArea IC50/EC50 [2]: > 10 µM
- Basal_Viability ATP RKO IC50/EC50 (RKO; assay number 29): 7.4004 µM
- VEGF_ADSC\ECFC Angio CD31 TubeArea IC50/EC50 [3]: > 10 µM

SMILES: C1CCC(C(CC2CCCCN2)C2CCCCC2)CC1.O=C(O)/C=C\C(=O)O (stereo not shown) [NCGC00018261-06]
- Basal_Viability ATP SW480 IC50/EC50 (SW480): 5.7603 µM
- Basal_Viability ATP SNU-C1 IC50/EC50 (SNU-C1): 2.48 µM
- GSK3b inh pretreated_Viability ATP HCT116 IC50/EC50 [1]: 7.4207 µM
- Basal_Viability ATP HT-29 IC50/EC50 (HT-29): 6.8652 µM
- Basal_Viability ATP HCT116 IC50/EC50 (HCT116): > 20 µM
- Basal_Viability ATP Colo 320 IC50/EC50 (Colo320): 8.8632 µM
- Basal_Viability ATP DLD-1 IC50/EC50 (DLD-1): > 20 µM
- Basal_Viability ATP RKO IC50/EC50 (RKO): 7.8491 µM

SMILES: Cc1nnc(NS(=O)(=O)c2ccc(N)cc2)s1 [NCGC00016407-08]
- IC50 (SW480; assay number 24, basal, read-out: Basal_Viability ATP SW480 summarized IC50): > 20 µM
- IC50 (SNU-C1; assay number 30, basal, read-out: Basal_Viability ATP SNU-C1 summarized IC50): > 20 µM
- IC50 ([1]; assay number 26, GSK3b inhibitor pretreated, read-out: GSK3b inh pretreated_Viability ATP HCT116 summarized IC50): > 20 µM
- IC50 (HT-29; assay number 28, basal, read-out: Basal_Viability ATP HT-29 summarized IC50): > 20 µM
- IC50 (HCT116; assay number 25, basal, read-out: Basal_Viability ATP HCT116 summarized IC50): > 20 µM
- IC50 (Colo320; assay number 27, basal, read-out: Basal_Viability ATP Colo 320 summarized IC50): > 20 µM
- IC50 (DLD-1; assay number 23, basal, read-out: Basal_Viability ATP DLD-1 summarized IC50): > 20 µM
- IC50 (RKO; assay number 29, basal, read-out: Basal_Viability ATP RKO summarized IC50): > 20 µM

SMILES: O=C1C(=O)c2ccccc2C(O)=C1C1CCC(c2ccc(Cl)cc2)CC1 (stereo not shown) [NCGC00016961-06]
- Basal_Viability ATP SW480 IC50/EC50 (SW480; assay number 24, basal): 0.0946 µM
- Hela CellCycMod PI 2N IC50/EC50 (HeLa cells): > 10 µM
- Hela CellCycMod PI 4N IC50/EC50 (HeLa cells): > 10 µM
- Hela CellCycMod PI MI IC50/EC50 (HeLa cells): > 10 µM
- Hela CellCycMod PI Cell Number IC50/EC50 (HeLa cells): > 10 µM
- Basal_Viability ATP SNU-C1 IC50/EC50 (SNU-C1; assay number 30, basal): 0.3675 µM
- Basal_Viability ATP HT-29 IC50/EC50 (HT-29; assay number 28, basal): 0.4112 µM
- Basal_Viability ATP HCT116 IC50/EC50 (HCT116; assay number 25, basal): 0.1384 µM
- Basal_Viability ATP Colo 320 IC50/EC50 (Colo320; assay number 27, basal): 0.1764 µM
- Basal_Viability ATP DLD-1 IC50/EC50 (DLD-1; assay number 23, basal): 0.0838 µM
- VEGF_ADSC\ECFC Angio Hoechst NucArea IC50/EC50 [2]: > 10 µM
- Basal_Viability ATP RKO IC50/EC50 (RKO; assay number 29, basal): 0.1142 µM
- VEGF_ADSC\ECFC Angio CD31 TubeArea IC50/EC50 [3]: 5.1845 µM

SMILES: Nc1nc(Cl)nc2c1ncn2[C@@H]1O[C@H](CO)[C@@H](O)[C@@H]1F [NCGC00164553-02]
- Hela CellCycMod PI 2N IC50/EC50 (HeLa cells): > 10 µM
- Hela CellCycMod PI S Phase IC50/EC50 (HeLa cells; assay number 15, S phase): > 10 µM
- Hela CellCycMod PI 4N IC50/EC50 (HeLa cells): > 10 µM
- Hela CellCycMod PI MI IC50/EC50 (HeLa cells): > 10 µM
- Hela CellCycMod PI Cell Number IC50/EC50 (HeLa cells): 0.00516 µM
- Basal_Viability ATP SNU-C1 IC50/EC50 (SNU-C1; assay number 30, basal): > 20 µM
- GSK3b inh pretreated_Viability ATP HCT116 IC50/EC50 [1, 4]: 0.001 µM
- Basal_Viability ATP HT-29 IC50/EC50 (HT-29; assay number 28, basal): > 20 µM
- Basal_Viability ATP HCT116 IC50/EC50 (HCT116; assay number 25, basal): 0.001 µM
- Basal_Viability ATP Colo 320 IC50/EC50 (Colo320; assay number 27, basal): > 20 µM
- Basal_Viability ATP DLD-1 IC50/EC50 (DLD-1; assay number 23, basal): 0.1636 µM
- Basal_Viability ATP RKO IC50/EC50 (RKO; assay number 29, basal): 0.001 µM

SMILES: C=Cc1c(C)c2cc3nc(cc4[nH]c(cc5nc(cc1[nH]2)C(C)=C5CCC(=O)O)c(CCC(=O)OC)c4C)[C@@]1(C)C3=CC=C(C(=O)OC)[C@@H]1C(=O)OC [NCGC00344558-01]
- Basal_Viability ATP SW480 IC50/EC50 (SW480; assay number 24, basal): > 6.667 µM
- Basal_Viability ATP SNU-C1 IC50/EC50 (SNU-C1; assay number 30, basal): 5.854 µM
- GSK3b inh pretreated_Viability ATP HCT116 IC50/EC50 [1, 4]: 4.2601 µM
- Basal_Viability ATP HT-29 IC50/EC50 (HT-29; assay number 28, basal): 3.9401 µM
- Basal_Viability ATP HCT116 IC50/EC50 (HCT116; assay number 25, basal): 5.6514 µM
- Basal_Viability ATP Colo 320 IC50/EC50 (Colo320; assay number 27, basal): 9.6205 µM
- Basal_Viability ATP RKO IC50/EC50 (RKO; assay number 29, basal): 3.5296 µM

Source: paper PMC4503722, “Novel Phenotypic Outcomes Identified for a Public Collection of Approved Drugs from a Publicly Accessible Panel of Assays” (PLoS ONE, 2015)
